Laboratory results: patent EP1290011B1 (Oncopeptides AB, priority 2000, dated 2001)
Counter-ions that a name gives are not always drawn.

Legend:
[1] = system: sarcoma 45; conditions: rat, in vivo; cited from earlier work
[2] = system: oxidative phosphorylation in mitochondria from rat liver homogenates and Jensen sarcoma cells; conditions: cited from earlier work
[3] = system: Hematological tumours (PHTC); experiment: FMCA in PHTC cultures, Table 4, hematological; conditions: 4 µM; n=7-11; 4320 min
[4] = system: primary cultures of human tumor cells from patients (PHTC), Total; experiment: FMCA in PHTC cultures, Table 4, total; conditions: 4 µM; n=19-31; 4320 min
[5] = system: fresh human tumour specimens; experiment: FMCA cytotoxic activity in 27 fresh human tumour specimens (Figure 2); type: cell-based; conditions: 27 human tumour samples, 14 hematological and 13 solid, comparative statement
[6] = system: 8226Dox40; experiment: cells; type: cell-based, human; conditions: 8226Dox40, doxorubicin resistance; 72 hours incubation; read-out: IC50
[7] = system: U937vcr; experiment: cells; type: cell-based, human; conditions: U937vcr, vincristine resistance; 72 hours incubation; read-out: IC50
[8] = system: Breast cancer; experiment: Cytotoxic activity in different tumour models; type: cell-based, human; conditions: Number 4
[9] = system: CEM/R; experiment: cells; type: cell-based, human; conditions: CEM/R; 72 hours incubation; read-out: IC50
[10] = system: CEM/S; experiment: cells; type: cell-based, human; conditions: CEM/S; 72 hours incubation; read-out: IC50
[11] = system: H69; experiment: cells; type: cell-based, human; conditions: H69, small cell lung cancer; 72 hours incubation; read-out: IC50
[12] = system: PHTC samples from 9 patients with hematological and 18 patients with solid tumours; experiment: Circumvention of melphalan resistance: FMCA classification of PHTC samples as LDR, IDR, EDR; type: cell-based, human; conditions: tested at 4 µM
[13] = system: panel of ten human tumour cell lines; experiment: cells; type: cell-based; conditions: mean over the ten cell lines; read-out: MEAN IC50
[14] = system: Solid tumours (PHTC); experiment: FMCA in PHTC cultures, Table 4, solid; conditions: 4 µM; n=12-20; 4320 min
[15] = system: solid tumour fresh human tumour specimens (PHTC); conditions: 0.66 µM; n=22; 4320 min
[16] = system: H69AR; experiment: cells; type: cell-based, human; conditions: H69AR, doxorubicin resistance; 72 hours incubation; read-out: IC50
[17] = system: ACHN; experiment: cells; type: cell-based, human; conditions: ACHN, primary resistant renal carcinoma; 72 hours incubation; read-out: IC50
[18] = system: RPMI 8322 melanoma cells; conditions: compared with the other peptides of PTC; cited from earlier work
[19] = system: 8226S; experiment: cells; type: cell-based, human; conditions: 8226S, myeloma; 72 hours incubation; read-out: IC50
[20] = system: Corpus cancer; experiment: Cytotoxic activity in different tumour models; type: cell-based, human; conditions: Number 4
[21] = system: Adeno-carcinoma; experiment: Cytotoxic activity in different tumour models; type: cell-based, human; conditions: Number 5
[22] = system: hematological fresh human tumour specimens (PHTC); conditions: 0.66 µM; n=42; 4320 min
[23] = system: U937gtb; experiment: cells; type: cell-based, human; conditions: U937gtb, lymphoma; 72 hours incubation; read-out: IC50
[24] = system: NSC Lung cancer; experiment: Cytotoxic activity in different tumour models; type: cell-based, human; conditions: Number 8
[25] = system: 8226LR5; experiment: cells; type: cell-based, human; conditions: 8226LR5, melphalan resistance; 72 hours incubation; read-out: IC50
[26] = system: Prostate cancer; experiment: Cytotoxic activity in different tumour models; type: cell-based, human; conditions: Number 1
[27] = system: Ovarian carcinoma; experiment: Cytotoxic activity in different tumour models; type: cell-based, human; conditions: Number 8

Compound: CCOC(=O)[C@H](Cc1ccc(O)cc1)NC(=O)[C@H](Cc1ccc(N(CCCl)CCCl)cc1)NC(C)=O [astyron, N-acetyl-L-melphalanyl-L-tyrosine ethyl ester]
- sarcoma 45 growth [1]: inhibited sarcoma 45 growth

Compound: CC(C)[C@H](NC(=O)[C@@H](N)Cc1ccc(N(CCCl)CCCl)cc1)C(=O)O [L-melphalanyl-L-valine]
- oxidative phosphorylation [2]: disrupted oxidative phosphorylation

Compound: CCOC(=O)[C@H](Cc1ccc(F)cc1)NC(=O)[C@H](Cc1cccc(N(CCCl)CCCl)c1)NC(=O)[C@@H]1CCCN1 [Example P2, L-prolyl-m-L-sarcolysyl-p-L-fluorophenylalanine ethyl ester hydrochloride, reference compound]
- Tumour cell survival index (%) Hematological tumours [3]: 7%
- Tumour cell survival index (%) Total [4]: 46.1%
- IC50s (comparison) [5]: more active than melphalan
- IC50 [6]: 5.43 µM
- IC50 [7]: 1.79 µM
- Median response at 4.0 µM >50% reduction in tumour cell survival [8]: No
- IC50 [9]: 0.63 µM
- IC50 [10]: 0.94 µM
- IC50 [11]: 4.59 µM
- Number of samples EDR ([12]; Extreme drug resistance): 1
- Number of samples (%) EDR ([12]; Extreme drug resistance, percent of samples): 5%
- Number of samples IDR ([12]; Intermediate drug resistance): 4
- Number of samples (%) IDR ([12]; Intermediate drug resistance, percent of samples): 21%
- Number of samples LDR ([12]; Low drug resistance): 14
- Number of samples (%) LDR ([12]; Low drug resistance, percent of samples): 74%
- IC50 [13]: 3.35 µM
- Tumour cell survival index (%) Solid tumours [14]: 68.9%
- Tumour cell survival index % Solid [15]: 86.0%
- IC50 [16]: 4.27 µM
- IC50 [17]: 4.59 µM
- cytotoxicity [18]: more toxic to RPMI 8322 melanoma cells than any of the other peptides
- IC50 [19]: 5.11 µM
- Median response at 4.0 µM >50% reduction in tumour cell survival [20]: No
- Median response at 4.0 µM >50% reduction in tumour cell survival [21]: No
- Tumour cell survival index % Hematological [22]: 34.7%
- IC50 [23]: 1.78 µM
- Median response at 4.0 µM >50% reduction in tumour cell survival [24]: No
- IC50 [25]: 7.4 µM
- Median response at 4.0 µM >50% reduction in tumour cell survival [26]: No
- Median response at 4.0 µM >50% reduction in tumour cell survival [27]: No
